ChEMBL document CHEMBL6134780, “Halogenated retinoid derivatives as dual RARα and RXRα modulators for treating acute promyelocytic leukemia cells” (Eur J Med Chem, 2024)
Calls of active or inactive are those of the source. The calls are words filed in the database; no cut-off is given here.

Experiments:
[1] = test system: NB-4; assay: Cell cycle arrest in human NB4 cells assessed as accumulation of cells at S phase at 0.5 uM incubated for 6 days for DAPI staining based flow cytometric analysis (reference value: 27 %); assay type: functional; details: time 6 day
[2] = test system: K562; assay: Induction of apoptosis in human K562 cells assessed as necrotic cells at 2 uM incubated for 24 hrs by Annexin V-FITC/PI staining based flow cytometric analysis (reference value: 2.19 %); assay type: functional
[3] = target: Oxysterols receptor LXR-beta (Homo sapiens) (UniProt P55055); assay: Agonist activity at Gal4-fused full length LXRbeta LBD (unknown origin) transfected in HEK293T cells co-transfected with pG5luc reporter and Renilla-luc at 0.1 to 1 uM incubated for 12 hrs by luciferase reporter gene assay; assay type: cell-based; details: dose 0.1-1 µM
[4] = test system: NB-4; assay: Cell cycle arrest in human NB4 cells assessed as accumulation of cells at G0/G1 phase at 0.5 uM incubated for 6 days for DAPI staining based flow cytometric analysis (reference value: 52 %); assay type: functional; details: time 6 day
[5] = test system: NB-4; assay: Induction of apoptosis in human NB4 cells assessed as viable cells at 1 uM incubated for 24 hrs by Annexin V-FITC/PI staining based flow cytometric analysis (reference value: 92.36 %); assay type: functional; details: read-out: Activity
[6] = target: T1, Retinoic acid receptor RXR-beta (Homo sapiens) (UniProt P28702); assay: Competitive binding affinity to Gal4-fused full length RXRbeta LBD (unknown origin) transfected in HEK293T cells co-transfected with pG5luc reporter and Renilla-luc at 0.1 to 1 uM incubated for 12 hrs in presence of ATRA by luciferase reporter gene assay; assay type: cell-based; details: dose 0.1-1 µM
T1 sequence (whole entry): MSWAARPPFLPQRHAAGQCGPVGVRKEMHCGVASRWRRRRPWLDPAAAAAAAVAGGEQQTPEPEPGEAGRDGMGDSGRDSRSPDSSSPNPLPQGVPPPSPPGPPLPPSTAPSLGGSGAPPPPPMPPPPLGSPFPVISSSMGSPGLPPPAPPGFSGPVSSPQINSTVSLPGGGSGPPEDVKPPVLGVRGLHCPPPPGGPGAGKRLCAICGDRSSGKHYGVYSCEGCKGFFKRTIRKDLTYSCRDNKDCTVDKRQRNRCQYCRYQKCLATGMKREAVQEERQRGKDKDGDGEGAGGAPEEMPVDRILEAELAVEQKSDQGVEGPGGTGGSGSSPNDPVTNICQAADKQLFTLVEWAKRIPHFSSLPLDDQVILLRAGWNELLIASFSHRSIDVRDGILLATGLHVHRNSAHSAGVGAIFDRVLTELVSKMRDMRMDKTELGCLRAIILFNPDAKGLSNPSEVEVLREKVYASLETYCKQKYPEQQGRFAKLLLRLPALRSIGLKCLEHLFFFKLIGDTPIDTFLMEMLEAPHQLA

[7] = test system: HeLa; assay: Induction of 3-flag-tagged PML-RARalpha R276E mutant (unknown origin) degradation transfected in human HeLa cells at 1 to 2 uM incubated for 24 hrs by Western blot analysis; assay type: cell-based; details: dose 1-2 µM
[8] = test system: NB-4; assay: Cell cycle arrest in human NB4 cells assessed as increase in PLK1 expression at 2 uM incubated for 3 to 24 hrs by Western blot analysis; assay type: functional, cell-based; details: time 3-24 hrs
[9] = target: Oxysterols receptor LXR-alpha (Homo sapiens) (UniProt Q13133); assay: Agonist activity at Gal4-fused full length LXRalpha LBD (unknown origin) transfected in HEK293T cells co-transfected with pG5luc reporter and Renilla-luc at 0.1 to 1 uM incubated for 12 hrs by luciferase reporter gene assay; assay type: cell-based; details: dose 0.1-1 µM
[10] = test system: ATRA-resistant NB4-LR2; assay: Induction of apoptosis in human ATRA-resistant NB4-LR2 cells assessed as increase in cleaved-PARP expression at 2 uM incubated for 3 to 24 hrs by Western blot analysis; assay type: functional, cell-based; details: time 3-24 hrs
[11] = test system: NB-4; assay: Antiproliferative activity against human NB4 cells assessed as inhibition of cell viability incubated for 3 days by CCK8 assay; assay type: functional, cell-based; details: dose <= 3.5 µM, time 3.0 day
[12] = test system: K562; assay: Induction of apoptosis in human K562 cells assessed as viable cells at 2 uM incubated for 24 hrs by Annexin V-FITC/PI staining based flow cytometric analysis (reference value: 90.02 %); assay type: functional; details: read-out: Activity
[13] = test system: NB-4; assay: Cell cycle arrest in human NB4 cells assessed as accumulation of cells at sub-G1 phase at 0.5 uM incubated for 6 days for DAPI staining based flow cytometric analysis (reference value: 6 %); assay type: functional; details: time 6 day
[14] = test system: NB-4; assay: Induction of mitosis in human NB4 cells assessed as upregulation of pT210-PLK1 expression at 2 uM measured after 3 hrs by Western blot analysis; assay type: functional, cell-based
[15] = test system: K562; assay: Induction of apoptosis in human K562 cells assessed as late apoptotic cells at 2 uM incubated for 24 hrs by Annexin V-FITC/PI staining based flow cytometric analysis (reference value: 5.98 %); assay type: functional
[16] = test system: ATRA-resistant NB4-LR2; assay: Induction of cell differentiation in human ATRA-resistant NB4-LR2 cells at 0.5 uM incubated for 6 days by flow cytometric analysis; assay type: functional, cell-based; details: time 6.0 day
[17] = test system: NB-4; assay: Induction of DNA damage in human NB4 cells assessed as increase in gamma-H2AX expression at 2 uM by Western blot analysis; assay type: functional, cell-based
[18] = test system: NB-4; assay: Induction of apoptosis in human NB4 cells assessed as PARP cleavage at >1 uM incubated for 24 hrs by Western blot analysis; assay type: functional, cell-based
[19] = test system: ATRA-resistant NB4-LR2; assay: Induction of apoptosis in human ATRA-resistant NB4-LR2 cells assessed as PARP cleavage at 0.5 uM incubated for 24 hrs by Western blot analysis; assay type: functional, cell-based
[20] = test system: K562; assay: Induction of cell differentiation in human K562 cells at 0.5 uM incubated for 6 days by CD11b staining based flow cytometric analysis; assay type: functional; details: time 6.0 day
[21] = target: T1, Retinoic acid receptor RXR-beta (Homo sapiens); assay: Agonist activity at Gal4-fused full length RXRbeta LBD (unknown origin) transfected in HEK293T cells co-transfected with pG5luc reporter and Renilla-luc at 0.1 to 1 uM incubated for 12 hrs by luciferase reporter gene assay; assay type: cell-based; details: dose 0.1-1 µM
[22] = test system: NB4; assay: Induction of PML-RARalpha degradation in human NB4 cells at 0.5 uM incubated for 6 days by Western blot analysis; assay type: cell-based; details: time 6.0 day
[23] = test system: HEK293T; assay: Agonist activity at 3-Flag-tagged PML-RARalpha/HA-tagged RXRalpha (unknown origin) transfected in HEK293T cells co-transfected with pGL3-beta-RARE and Renilla-luc assessed as increase in transcriptional activity at 1 uM incubated for 12 hrs by luciferase reporter gene assay relative to ATRA; assay type: cell-based; details: Homo sapiens, filed as agonist
[24] = test system: K562; assay: Induction of apoptosis in human K562 cells assessed as early apoptotic cells at 2 uM incubated for 24 hrs by Annexin V-FITC/PI staining based flow cytometric analysis (reference value: 0.91 %); assay type: functional
[25] = Induction of apoptosis in human ATRA-resistant NB4-LR2 cells assessed as early apoptotic cells at 1 uM incubated for 24 hrs by Annexin V-FITC/PI staining based flow cytometric analysis (reference value: 5.38 %); assay type: functional
[26] = test system: K562; assay: Induction of apoptosis in human K562 cells assessed as late apoptotic cells at 1 uM incubated for 24 hrs by Annexin V-FITC/PI staining based flow cytometric analysis (reference value: 5.98 %); assay type: functional
[27] = test system: NB-4; assay: Cell cycle arrest in human NB4 cells assessed as accumulation of cells at G2/M phase at 0.5 uM incubated for 6 days for DAPI staining based flow cytometric analysis (reference value: 15 %); assay type: functional; details: time 6 day

Sequence of Oxysterols receptor LXR-beta (Homo sapiens) (P55055 whole entry, the tested form may be a part): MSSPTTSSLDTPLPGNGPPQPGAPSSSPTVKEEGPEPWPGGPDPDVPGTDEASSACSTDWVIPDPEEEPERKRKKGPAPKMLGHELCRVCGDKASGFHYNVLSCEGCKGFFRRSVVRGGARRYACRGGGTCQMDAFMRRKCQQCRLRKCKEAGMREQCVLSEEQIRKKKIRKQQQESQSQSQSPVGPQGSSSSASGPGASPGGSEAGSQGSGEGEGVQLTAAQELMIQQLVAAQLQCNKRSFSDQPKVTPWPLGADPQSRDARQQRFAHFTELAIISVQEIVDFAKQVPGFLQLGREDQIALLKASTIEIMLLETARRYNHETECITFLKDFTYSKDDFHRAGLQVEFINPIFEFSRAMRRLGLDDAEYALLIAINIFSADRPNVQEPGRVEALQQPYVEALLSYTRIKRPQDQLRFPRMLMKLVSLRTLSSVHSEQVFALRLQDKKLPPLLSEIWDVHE
Sequence of Oxysterols receptor LXR-alpha (Homo sapiens) (Q13133 whole entry, the tested form may be a part): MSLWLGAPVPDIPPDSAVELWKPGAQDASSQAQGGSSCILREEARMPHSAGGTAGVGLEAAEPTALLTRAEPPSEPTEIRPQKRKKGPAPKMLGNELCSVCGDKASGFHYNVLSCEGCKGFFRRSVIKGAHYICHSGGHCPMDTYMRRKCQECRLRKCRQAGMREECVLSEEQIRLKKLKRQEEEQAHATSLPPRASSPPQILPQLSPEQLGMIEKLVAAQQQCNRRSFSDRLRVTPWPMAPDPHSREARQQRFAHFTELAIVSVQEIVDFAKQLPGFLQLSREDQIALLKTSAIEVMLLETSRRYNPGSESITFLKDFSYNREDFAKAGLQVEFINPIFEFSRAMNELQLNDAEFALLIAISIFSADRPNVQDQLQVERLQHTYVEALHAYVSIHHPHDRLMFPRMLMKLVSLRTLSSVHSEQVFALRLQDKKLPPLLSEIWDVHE

Compound: Cc1cc2c(cc1C(=O)/C(Br)=C\c1ccc(C(=O)O)cc1)C(C)(C)CCC2(C)C
- Activity [1]: 8%
- Activity [2]: 3.03%
- Activity [3]: Minimal_effect
- Activity [4]: 72%
- viability at 1 µM [5]: 76.7%
- Activity [6]: Not active; No Significant Competitive Effect On Atra Activation Observed
- Activity [7]: inactive
- Activity [8]: Active
- Activity [9]: Minimal_effect
- Activity [10]: Active
- Activity [11]: Dose-dependent-effect
- viability at 2 µM [12]: 88.8%
- Activity [13]: 6%
- Activity [14]: Active
- Activity [15]: 7.14%
- Activity [16]: Minimal_effect
- Activity [17]: Active; Dna Damage Detected When Apoptosis Occurred
- Activity [18]: Active
- Activity [19]: Active
- Activity [20]: inactive
- Activity [21]: Weak_effect
- Activity [22]: Active
- Activity [23]: > 70%
- Activity [24]: 1.05%
- Activity [25]: 20.24%
- Activity [26]: 6.86%
- Activity [27]: 14%

Compound: Cc1cc2c(cc1C(=O)/C(Br)=C/c1ccc(C(=O)O)cc1)C(C)(C)CCC2(C)C
- Activity [1]: 7%
- Activity [2]: 2.27%
- Activity [3]: Minimal_effect
- Activity [4]: 71%
- viability at 1 µM [5]: 59.8%
- Activity [6]: Not active; No Significant Competitive Effect On Atra Activation Observed
- Activity [7]: inactive
- Activity [8]: Active
- Activity [9]: Minimal_effect
- Activity [10]: Active
- Activity [11]: Dose-dependent-effect
- viability at 2 µM [12]: 88.6%
- Activity [13]: 9%
- Activity [14]: Active
- Activity [15]: 7.92%
- Activity [16]: Minimal_effect
- Activity [17]: Active; Dna Damage Detected When Apoptosis Occurred
- Activity [18]: Active
- Activity [19]: Active
- Activity [20]: inactive
- Activity [21]: Weak_effect
- Activity [22]: Active
- Activity [23]: > 70%
- Activity [24]: 1.18%
- Activity [25]: 29.03%
- Activity [26]: 7.4%
- Activity [27]: 13%
